Earlier results, collected in patent US12633379B2, “Visible neural network framework” (priority 2020, dated 2026).

System: 39 human cancer cell lines
[1] = across the majority of cell lines tested in DeepSynergy, partners in FIG. 5F: MK2206, PD325901

Structure (SMILES): COc1cc([C@@H]2c3cc4c(cc3[C@@H](O[C@@H]3O[C@@H]5CO[C@@H](C)O[C@H]5[C@H](O)[C@H]3O)[C@H]3COC(=O)[C@H]23)OCO4)cc(OC)c1O [etoposide]
- Loewe synergy in combination with AKT inhibition [1]: synergized strongly
- Loewe synergy in combination with MEK inhibition [1]: synergized strongly
- Loewe synergy in combination with bortezomib (combined with the proteasome inhibitor bortezomib, DeepSynergy cell line panel, FIG. 12A, FIG. 5F): did not synergize
